# According to patent US10457662B2, “Substituted amides for treating and preventing cancer” (The Regents of the University of Michigan, priority 2015, dated 2019):
# Entries after “also recorded” stand apart in the source; their conditions may differ. Where two headings read alike, the source gives them in different places.
# Legend:
# [1] = tested on: Ovcar 8; experiment: MTT assay, Ovcar 8; format: cell-based; settings: Homo sapiens
# Description: (§1) In order to understand its potential selectivity for different types of cancer and choose the best model for further characterization, QN523 was tested in a panel of 12 cancer cell lines with various genetic and pathological backgrounds (Table 2). […] Because of remarkable potency of QN-523 in pancreatic cancer in-depth preclinical studies in this disease model were performed.
# [2] = tested on: BxPC-3; experiment: MTT assay, BxPC-3; format: cell-based; settings: Homo sapiens
# Description: (§2) Experiments conducted during the course of developing embodiments for the present invention involved performance of a phenotypic screen of a library of 20,000 small-molecules representing five million compounds. […] Subsequently, a lead optimization campaign was performed to synthesize a series of close analogs. Initially, the 50 analogs were tested in three pancreatic cancer cell lines using MTT assay (Table 1).
# (§3) For in vitro studies, compounds were dissolved in DMSO at 10 mM as stock solutions and stored at −20° C. For in vivo studies, QN523 was dissolved in a vehicle containing 5% DMSO, 35% propylene glycol and 60% saline, and administered at 100 uL through intraperitoneal injections.
# [3] = tested on: Panc-1; experiment: MTT assay, Panc-1; format: cell-based; settings: Homo sapiens
# Description: as §2, §3
# [4] = tested on: MiaPaCa-2; experiment: MTT assay, MiaPaCa-2
# Description: Cells were treated with QN523 for 1, 4, 8, 24, 48, 72 h and left in culture in fresh media. MTT assay was performed 72 h after initiation of treatment. Data points represent Mean±SD from three independent experiments.
# as §2, §3
# [5] = tested on: WIPI1, GABARAPL1 and LC3B; experiment: Western blotting of autophagy related proteins in MiaPaCa-2; format: cell-based
# Description: FIG. 12: QN523 induces protein expression of autophagy markers dose-dependently.
# Significant induction of the protein was detected at concentrations as low as 0.25 μM.
# In addition, primary antibodies for LC3B, survivin, cyclin D1, Stat3 and phosphorylated Stat3 (Y705) are from Cell Signaling Technology.
# [6] = tested on: MiaPaCa-2 xenograft; experiment: MiaPaCa-2 xenograft in NOD/SCID mice; format: in vivo
# Description: FIG. 2A-E: QN523 inhibits tumor growth of MiaPaCa-2 xenograft without systemic cytotoxicity. A) Tumor volume of MiaPaCa-2 xenograft of vehicle or QN523 treated mice. MiaPaCa-2 xenograft was established in NOD/SCID mice. When tumor size reached 100 mm^3, mice were randomized into vehicle control group (n=5) or treatment group (n=5). QN523 was given by i.p. injection five times a week at 10 mg/kg from day 1 to day 9, then at 20 mg/kg from day 10 to day 44. B) Body weight of vehicle of QN523 treated mice. Representative micrographs of hematoxylin and eosin (H&E)-stained organ sections. Images were taken with Olympus IX83 inverted microscope at 20× magnification. […] D) Tumor volumes of study continued after data shown in panel A. QN523 was given at 20 mg/kg five times a week until day 44. Three mice from each group were euthanized for tissue analysis. Two mice remained in each group after day 44 and QN523 dose was increased to 30 mg/kg from day 45, then to 40 mg/kg from day 51 to day 60. E) Body weight of engrafted mice was not affected by QN523 treatment at 10-40 mg/kg. Error bars indicate Mean±SEM.
# To further evaluate the therapeutic potentials of QN523 in pancreatic cancer, MiaPaCa-2 xenograft were implanted in NOD/SCID mice. When tumor size reached 100 mm^3, mice were randomized to either vehicle control (n=5) or QN523 treatment (n=5) group. QN523 was initially given at 10 mg/kg with intraperitoneal administration.
# [7] = tested on: PDAC cell lines; experiment: Colony formation assay, three pancreatic cancer cell lines; format: cell-based; settings: 1 μM; all three cell lines; 24 h treatment
# Text: A) QN523 inhibits colony formation in PDAC cell lines. […] Data points represent Mean±SD from three independent experiments.
# The cytotoxicity of QN523 was further evaluated in three pancreatic cancer cell lines using colony formation assay. Using numbers and sizes of colonies as the experimental readout, this long-term assay estimates both anti-proliferative and cytotoxic effect.
# [8] = tested on: MiaPaCa-2 cells; experiment: DAVID analysis of Bru-seq gene lists; settings: genes changed at least 2 fold
# Description: Histogram represents statistical significance in regulation of the indicated theme.
# The lists were also analyzed by Database for Annotation, Visualization and Integrated Discovery (DAVID), which identify enriched biological themes with particular focus on gene ontology terms, as well as functional-related gene groups (see, e.g., Huang da W, Sherman B T, Lempicki R A (2009) Nature protocols 4(1): 44-57; Huang da W, Sherman B T, Lempicki R A (2009) Nucleic acids research 37(1): 1-13). […] In addition, induction of apoptosis and disruption of cell cycle might be important cellular events contributing to cytotoxicity of QN523.
# Top functional terms identified by DAVID are reported.
# [9] = tested on: SNU475; experiment: MTT assay, SNU475; format: cell-based; settings: Homo sapiens, SNU-475, HCC cell line
# Description: as §1
# [10] = tested on: panel of 12 cancer cell lines; experiment: MTT assay, panel of 12 cancer cell lines; format: cell-based; settings: range over the panel; read-out: IC50 values across all 12 cell lines
# Description: as §1
# [11] = tested on: HepG2; experiment: MTT assay, HepG2; format: cell-based; settings: Homo sapiens, HCC cell line
# Description: as §1
# [12] = tested on: three pancreatic cancer cell lines; experiment: MTT assay, three pancreatic cancer cell lines; format: cell-based; settings: read-out: Mark: IC50 lower than 1 μM in at least one cell line, Table 1
# [13] = tested on: SNU449; experiment: MTT assay, SNU449; format: cell-based; settings: Homo sapiens, SNU-449, HCC cell line
# Description: as §1
compound,measurement,setting,value
"O=C(Nc1cccc2cccnc12)c1cnccn1 [QN523, Pyrazine-2-carboxylic acid quinolin-8-ylamide]",IC50,[1],300 nM
same,IC50,"[2]; BXPC-3, read-out: IC50 BxPC-3",3300 nM
same,IC50,"[2]; BXPC-3, read-out: IC50 Values BxPC-3",3300 ± 260 nM
same,IC50,"[3]; PANC-1, read-out: IC50 Panc-1",500 nM
same,IC50,"[3]; PANC-1, read-out: IC50 Values Panc-1",500 ± 70 nM
same,IC50,"[4]; Homo sapiens, MIA PaCa-2, read-out: IC50 Mia PaCa-2, MTT assay, PDAC cell line",110 nM
same,IC50,"[4]; Homo sapiens, MIA PaCa-2, read-out: IC50 Values MiaPaCa-2, MTT assay, Mean ± SD, three independent experiments",110 ± 30 nM
same,IC50,"[4]; read-out: IC50 Mia PaCa-2, MTT assay, PDAC cell line",~100 nM
same,cytotoxicity versus treatment time,"[4]; treated 1, 4, 8, 24, 48, 72 h, washed, MTT at 72 h",time dependent cytotoxicity effect
same,lowest concentration with significant induction of WIPI1 protein,[5]; 72 h,0.25 µM
same,"autophagy-related markers WIPI1, GABARAPL1 and LC3B","[5]; 72 h treatment, western blotting",Accumulation
same,delay in tumor growth,"[6]; 10 mg/kg i.p., day 1 to day 9",no significant delay in tumor growth
same,day from which xenograft growth was delayed,"[6]; 20 mg/kg i.p. from day 10, p<0.01",≥ 17 days
same,tumor growth at higher doses,"[6]; 30 mg/kg from day 45, 40 mg/kg day 51 to 60, two mice",able to delay growth of the tumors
same,"symptoms of gross toxicity (weakness, weight loss, lethargy)","[6]; 10-20 mg/kg i.p., 44 days",No symptoms of gross toxicity
same,body weight of engrafted mice,[6]; 10-40 mg/kg,not affected
same,"H&E stained organ sections (liver, kidney, heart, lung, spleen, pancreas)",[6]; after 44-day treatment,did not reveal major histopathological changes
same,mean tumor volume,"[6]; day 44, 10 then 20 mg/kg i.p. five times a week",259±38 mm^3
same,inhibition of tumor growth,[6]; day 44 versus vehicle control,80%
same,systemic toxicity,[6]; doses as high as 40 mg/kg,no systemic toxicity
same,Ki67 in tumor tissues,[6]; immunohistochemistry of xenograft sections,decreased Ki67 levels; also recorded: decreased Ki67 index
same,inhibition of colony formation,[7],Complete inhibition of colony formation
same,biological themes downregulated,[8],chromosomal proteins and cell cycle genes
same,biological themes upregulated,[8],"Apoptosis, (bZIP) transcription factors, ER related genes and stress responses"
same,IC50,[9],2670 nM
same,IC50,[10],100 to 5700 nM
same,IC50,[11],500 nM
same,IC50,[12],< 1000 nM
same,IC50,[13],400 nM
